Patent US20110028566A1, “COMPOSITIONS AND PRODUCTS CONTAINING CYCLOALIPHATIC DIOL ANTIMICROBIAL AGENTS AND METHODS OF USING THE COMPOSITIONS AND PRODUCTS” (EASTMAN CHEMICAL COMPANY, priority 2009, published 2011)

Tests used:
Experiment in all cases: Microbial challenge testing in BPW
Assay type in all cases: cell-based
[1] = system: Staphylococcus epidermidis; settings: for Grade code, S. epidermidis, 3 Days / Grade code, S. epidermidis, 13 Days / Grade code, S. epidermidis, 30 Days: BPW, w/v % in label, average of replicates
Outline: (§1)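 Test materials, dosed as w/v % in BPW pH 7.0 with 1% dextrose, were challenged with bacteria at 10^5–10^6 cfu/mL starting count. Inocula came from 96 h or longer TSB-dextrose cultures, and counts were checked by PCA spread-plating. Samples were incubated 14 days at 35 °C, then at ambient temperature.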

[2] = system: Bacillus subtilis; settings: for Grade code, B. subtilis, 3 Day / Grade code, B. subtilis, 14 Day / Grade code, B. subtilis, 30 Days: BPW, w/v % in label, average of replicates
Outline: as §1

[3] = system: Proteus vulgaris
Outline: as §1

[4] = 3 days incubation, listed as 0.5% AB
[5] = 3 days incubation, listed as 1.25% AB
[6] = 3 days incubation, listed as 2.5% AB
[7] = 30 days incubation, listed as 0.5% AB
[8] = 30 days incubation, listed as 1.25% AB
[9] = 30 days incubation, listed as 2.5% AB

In the case of `OCC1CCC(CO)CC1` (stereo not shown) [1,4-CHDM, 1,4-cyclohexanedimethanol], the “Grade code S. epidermidis” value ([1]; 0.5%, 3 days incubation) is reported as 4 (1001 to 10,000 colonies (thus 10,000 cfu/mL to 100,000 cfu/mL)), the “Grade code S. epidermidis” value ([1]; 0.5%, 13 days incubation) is reported as 4 (1001 to 10,000 colonies (thus 10,000 cfu/mL to 100,000 cfu/mL)) and the “Grade code S. epidermidis” value ([1]; 0.5%, 30 days incubation) is reported as 4 (1001 to 10,000 colonies (thus 10,000 cfu/mL to 100,000 cfu/mL)). For the same molecule, the “Grade code S. epidermidis” value ([1]; 1.25%, 3 days incubation) was 2 (52 to 100 colonies counted (thus 520 to 1000 cfu/mL)), the “Grade code S. epidermidis” value ([1]; 1.25%, 13 days incubation) was 0.7 and the “Grade code S. epidermidis” value ([1]; 1.25%, 30 days incubation) was 2 (52 to 100 colonies counted (thus 520 to 1000 cfu/mL)). The “Grade code S. epidermidis” value ([1]; 2.5%, 3 days incubation) was 0.7, the “Grade code S. epidermidis” value ([1]; 2.5%, 13 days incubation) was 0 (No growth detected or <1 colony (thus <10 cfu/mL)) and the “Grade code S. epidermidis” value ([1]; 2.5%, 30 days incubation) was 0 (No growth detected or <1 colony (thus <10 cfu/mL)). For the same molecule, the “Grade code, S. epidermidis, 3 Days” value [1, 4] was 4 (1001 to 10,000 colonies (thus 10,000 cfu/mL to 100,000 cfu/mL)), the “Grade code, S. epidermidis, 3 Days” value [1, 5] was 2 (52 to 100 colonies counted (thus 520 to 1000 cfu/mL)) and the “Grade code, S. epidermidis, 3 Days” value [1, 6] was 0.7. For the same molecule, the “Grade code, S. epidermidis, 13 Days” value ([1]; 13 days incubation, listed as 0.5% AB) was 4 (1001 to 10,000 colonies (thus 10,000 cfu/mL to 100,000 cfu/mL)), the “Grade code, S. epidermidis, 13 Days” value ([1]; 13 days incubation, listed as 1.25% AB) was 0.7 and the “Grade code, S. epidermidis, 13 Days” value ([1]; 13 days incubation, listed as 2.5% AB) was 0 (No growth detected or <1 colony (thus <10 cfu/mL)). For the same molecule, the “Grade code, S. epidermidis, 30 Days” value [1, 7] was 4 (1001 to 10,000 colonies (thus 10,000 cfu/mL to 100,000 cfu/mL)), the “Grade code, S. epidermidis, 30 Days” value [1, 8] was 2 (52 to 100 colonies counted (thus 520 to 1000 cfu/mL)) and the “Grade code, S. epidermidis, 30 Days” value [1, 9] was 0 (No growth detected or <1 colony (thus <10 cfu/mL)). The “Grade code B. subtilis” value ([2]; 0.5%, 3 days incubation) was 4 (1001 to 10,000 colonies (thus 10,000 cfu/mL to 100,000 cfu/mL)), the “Grade code B. subtilis” value ([2]; 0.5%, 14 days incubation) was 4 (1001 to 10,000 colonies (thus 10,000 cfu/mL to 100,000 cfu/mL)) and the “Grade code B. subtilis” value ([2]; 0.5%, 30 days incubation) was 4 (1001 to 10,000 colonies (thus 10,000 cfu/mL to 100,000 cfu/mL)). The “Grade code B. subtilis” value ([2]; 1.25%, 3 days incubation) was 4 (1001 to 10,000 colonies (thus 10,000 cfu/mL to 100,000 cfu/mL)), the “Grade code B. subtilis” value ([2]; 1.25%, 14 days incubation) was 4 (1001 to 10,000 colonies (thus 10,000 cfu/mL to 100,000 cfu/mL)) and the “Grade code B. subtilis” value ([2]; 1.25%, 30 days incubation) was 4 (1001 to 10,000 colonies (thus 10,000 cfu/mL to 100,000 cfu/mL)). The “Grade code B. subtilis” value ([2]; 2.5%, 3 days incubation) was 3 (101 to 1000 colonies (thus 1000 to 10,000 cfu/mL)), the “Grade code B. subtilis” value ([2]; 2.5%, 14 days incubation) was 2 (52 to 100 colonies counted (thus 520 to 1000 cfu/mL)) and the “Grade code B. subtilis” value ([2]; 2.5%, 30 days incubation) was 1 (1 to 51 colonies counted (thus 10 to 510 cfu/mL)). The “Grade code, B. subtilis, 3 Day” value [2, 4] was 4 (1001 to 10,000 colonies (thus 10,000 cfu/mL to 100,000 cfu/mL)), the “Grade code, B. subtilis, 3 Day” value [2, 5] was 4 (1001 to 10,000 colonies (thus 10,000 cfu/mL to 100,000 cfu/mL)) and the “Grade code, B. subtilis, 3 Day” value [2, 6] was 3 (101 to 1000 colonies (thus 1000 to 10,000 cfu/mL)). For the same molecule, the “Grade code, B. subtilis, 14 Day” value ([2]; 14 days incubation, listed as 0.5% AB) was 4 (1001 to 10,000 colonies (thus 10,000 cfu/mL to 100,000 cfu/mL)), the “Grade code, B. subtilis, 14 Day” value ([2]; 14 days incubation, listed as 1.25% AB) was 4 (1001 to 10,000 colonies (thus 10,000 cfu/mL to 100,000 cfu/mL)) and the “Grade code, B. subtilis, 14 Day” value ([2]; 14 days incubation, listed as 2.5% AB) was 2 (52 to 100 colonies counted (thus 520 to 1000 cfu/mL)). For the same molecule, the “Grade code, B. subtilis, 30 Days” value [2, 7] was 4 (1001 to 10,000 colonies (thus 10,000 cfu/mL to 100,000 cfu/mL)), the “Grade code, B. subtilis, 30 Days” value [2, 8] was 4 (1001 to 10,000 colonies (thus 10,000 cfu/mL to 100,000 cfu/mL)) and the “Grade code, B. subtilis, 30 Days” value [2, 9] was 1 (1 to 51 colonies counted (thus 10 to 510 cfu/mL)). The “Grade code P. vulqaris” value ([3]; 0.5%, 3 days incubation) was 4 (1001 to 10,000 colonies (thus 10,000 cfu/mL to 100,000 cfu/mL)), the “Grade code P. vulqaris” value ([3]; 0.5%, 13 days incubation) was 4 (1001 to 10,000 colonies (thus 10,000 cfu/mL to 100,000 cfu/mL)) and the “Grade code P. vulqaris” value ([3]; 0.5%, 30 days incubation) was 4 (1001 to 10,000 colonies (thus 10,000 cfu/mL to 100,000 cfu/mL)). For the same molecule, the “Grade code P. vulqaris” value ([3]; 1.25%, 3 days incubation) was 3 (101 to 1000 colonies (thus 1000 to 10,000 cfu/mL)).
